SMILES	melting point [°C]
CC(=O)Nc1cccc2c1C(=O)OC2=O	180 to 183
CCOC(=O)/C=C/c1cccc(-c2ccc(OCC)c(OC)c2)c1	89 to 91
CN(C)CCCN(C)C(=O)C(Cc1ccccc1)NC(=O)c1cc2cc(Cl)ccc2[nH]1 (stereo not drawn)	187 to 190
C[Si](C)(C)CCCNc1ccc(C(=O)O)cc1	164 to 165
O=C(O)Cn1cc(Cc2nc3c(F)c(F)cc(F)c3s2)c2ccc(-c3ccccc3)cc21	156 to 159
Clc1ccc(Nc2nnc(Cc3ccncc3)c3cnccc23)cc1	227 to 228
CC(C)CCOc1cccc2c1C(=O)CC(c1nnn[nH]1)O2 (stereo not drawn)	134 to 137
CC(C)c1nc2c(s1)C(=O)N(c1cccc(C(F)(F)F)c1)C2=O	80
Cc1ccsc1-c1nc(-c2c(F)cccc2Cl)nn1C	80 to 82
COc1ccc(S(=O)(=O)c2ccccc2C(C)C)cc1	100
C(=C\c1nc(COc2ccc(CCCn3cnc(-c4ccccc4)c3-c3ccccc3)cc2)co1)/c1ccccc1	137 to 138
COc1cc(N2C(=S)N3CCCCC3C2O)c(F)cc1Cl (stereo not drawn)	208 to 215
Cc1c(O)cccc1C(=O)N[C@@H](Cc1ccccc1)[C@H](O)C(=O)N1CSC(C)(C)[C@H]1C(=O)N[C@H]1C=CCCC1	193 to 195
CCOC(=O)Nc1cc(=O)c2cc(Oc3ccccc3)c(NS(C)(=O)=O)cc2o1	207 to 209
CC1CC(=O)c2cc(O)cnc2C1 (stereo not drawn)	210 to 212
O=C(O)c1cccc(C(CCc2ccc(Cl)cc2)CC(=O)c2ccccc2)c1 (stereo not drawn)	93 to 95
c1ccc(-c2nc(SCCOCCSc3nc(-c4ccccc4)c(-c4ccccc4)[nH]3)[nH]c2-c2ccccc2)cc1	232 to 234
O=C(c1ccccc1)c1ccc(N2CCC(N3C(=O)OCc4ccccc43)CC2)c([N+](=O)[O-])c1	272 to 273
CN1C(=O)C2(COc3cc4c(cc32)OCCO4)c2c(-c3cc(O)[nH]n3)cccc21 (stereo not drawn)	> 250
Cc1cc(N2CCC=C(C(N)=O)C2)c2cccc(-c3ccc(Cl)cc3Cl)c2n1	230 to 232

SMILES	melting point [°C]
CCc1cccc(C)c1NCN1CCOC1=O	56 to 57.5
CCOC(=O)c1cc2c(O)nncc2nc1NC	290 to 292
CC(C)OC(=O)Nc1ccc(NC(=O)CBr)c([N+](=O)[O-])c1	195 to 197
CCCCOc1nc(N)c2nc(Br)n(C3CCCCO3)c2n1 (stereo not drawn)	148 to 150
CCOc1cccc(-c2cc(F)c(NC(=O)c3ccccc3CO)c(F)c2)c1	94.8 to 99.1
Cc1oc(-c2ccccc2)nc1COc1ccc2c(c1)CCC(C=O)=C2	114 to 115
c1cncc(CCc2ccc(C3OCCO3)cc2)c1	46 to 47
Cc1cc(C(=O)O)c(NC(=O)Nc2ccc(Oc3ccccc3)cc2)s1	213 to 215
CC1(C)CC(=O)C2=C(C1)NC1=C(C(=O)CC(C)(C)C1)C2c1cccc(OCc2ccncc2)c1	156 to 158
C=CCC1(C)Cc2cc(O)c(Cl)c(Cl)c2C1=O (stereo not drawn)	180
Cc1cc(C(=O)Cl)ccc1[N+](=O)[O-]	29 to 30
CC(C)(C)c1ccc(-c2nc3ccc(C(=O)O)cc3[nH]2)cc1	212
O=S(=O)(Nc1cc(O)ccc1Oc1ccccc1)C(F)(F)F	97 to 99
CCC#CCCOc1cc(/C=C/C(=O)Nc2ccccc2C(=O)O)ccc1OC	163 to 165
Cc1ccc(CC(=O)CCCC(=O)O)c(C)c1	75 to 76.5
CCOC(=O)CC(NC(=O)c1cc(N)ccc1OCCOC)c1ccccc1 (racemic)	105 to 106
Cn1c(C(F)(F)F)cc(=O)n(-c2ccc3snc(C(C)(C)C(=O)O)c3c2)c1=O	155 to 156
O=C1CC(c2ccccc2)C(=O)N1c1cc(Cc2n[nH]c(=O)c3ccccc23)ccc1F (stereo not drawn)	114 to 120
Cc1cc(O)cnc1Cl	126 to 128
NC1CCCCCCCCCCC(=O)N1 (single isomer, unassigned; (-))	128 to 130

The next lines start with the values.

melting point [°C]	SMILES
121 to 124	ClC(=NNc1ccccc1)c1ccc(Cl)c(Cl)c1
73 to 74.5	OC1CC=C(c2ccc(F)cc2)CC1 (stereo not drawn)
> 270	CC(C)(C)OC(=O)NC1CCN(c2ccc(C(N)=O)cc2)CC1
132 to 135	CCOC(=O)c1c(Cl)c2cccnc2n(C)c1=O
125 to 127	COCc1c(C=O)ncc2c1c1c(OCc3ccccc3)cccc1n2S(=O)(=O)c1ccc(C)cc1
188	Cc1ccc(-c2cncc(OC3SCC(O)C(O)C3O)c2)o1 (stereo not drawn)
91 to 92	O=C(c1ccccc1)c1ccc(-c2nc(COc3ccc(CCCCn4ccnc4)cc3)co2)cc1
160 to 164	COc1ccc(OCc2nc(-c3ccc(F)cc3)c(-c3ccc(S(C)(=O)=O)cc3)s2)cc1
155 to 157	O=C1CC(Br)CCCCCCCCCN1 (stereo not drawn)
144 to 146	CS(=O)(=O)c1ccc(C2=C(c3ccccc3)C(=O)N(C3CC3)C2)cc1
218 to 228	CC(=O)Nc1cc(Oc2ccc3c(C(=O)Nc4ccc(N5CCC[C@H](N)C5)c(C(F)(F)F)c4)cccc3c2)ncn1
130 to 132	COC=NS(=O)(=O)c1cc(C(C)C)c(C#N)cc1C(C)C
> 280	COc1ccc(/C=C/c2nc3c([nH]2)c(=O)n(C)c(=O)n3C)cc1Br
160 to 161	COc1ccc(C2=C(c3ccc(OC4CCCCO4)cc3)CCCc3cc(OC4CCCCO4)ccc32)cc1 (stereo not drawn)
137 to 139	NC(=O)c1ccc(C(Cc2ccc(F)cc2)C(=O)Nc2nc3ccccc3o2)cc1 (stereo not drawn)
198 to 200	CCN(C(=O)c1cc(Cl)c(NC(=O)C(F)(F)F)cc1OC)C1CCN(Cc2ccccc2)CC1
152	OCCC(O)OCn1cc(Br)c2c(Cl)ncnc21 (stereo not drawn)
225 to 227	Cc1nc(-n2ccc(OCc3ccccc3)cc2=O)sc1C(=O)NCc1ccc(F)c(F)c1
178 to 179	CCOC(=O)c1cnn(Cc2ccccc2)c1NC(=O)Nc1ccccc1
165 to 166	CN(C)C(=O)N1CCc2ccc(S(=O)(=O)NC(=O)NCC3CCCC3)cc2CC1
118	COc1cc2c(c(OC(C)=O)c1)C1CCC3(C)C(OC(C)=O)=CCC3C1CC2 (stereo not drawn)
136 to 144	CN(C)CC(C)(C)Oc1ccc(Nc2cc(-c3cccc(-n4ncc5cc(C(C)(C)C)cc(F)c5c4=O)c3CO)nn(C)c2=O)nc1
175 to 176	COc1ccc(N2CCN(c3ccc(-n4cnn([C@H](C)[C@@]5(c6ccc(F)cc6F)CO5)c4=O)cc3)CC2)cc1
211 to 213	CCn1cc(CN(C(=O)C2CCCc3c(O)cccc32)c2ccc(OC)cc2)cn1 (stereo not drawn)
233 to 236	O=C(O)c1cn(C2CC2)c2cc(N3CCC(c4cccnc4)C3)c(F)cc2c1=O (stereo not drawn)
273	CN(C)CC1CCC2(CC1)Nc1cc(Cl)c(S(N)(=O)=O)cc1S(=O)(=O)N2 (stereo not drawn)
108 to 109	CC(C)(C)c1cc(CCc2cc(F)ccc2NC(=O)NC2CCN(Cc3ccccc3)CC2)cc(C(C)(C)C)c1O
164 to 166	O=C(c1ccccc1C(c1ccc(O)cc1)c1ccc(O)cc1)N1CC2CCC(CC2)C1
